The values that follow come from patent US12403184B2, “Compositions and methods for treating neurodegenerative disroders” (priority 2018, dated 2025).

Where no end group is shown, it is not given here.

The test system of data set [1] is neurons derived from HD patients. The data set can be described thus: Cell death by LDH release in neurons derived from iPS cells. Type of data set: cell-based, human. As to the method: iPS cells from a normal subject and a HD patient (carrying 41 CAG repeats) were differentiated into neurons using the protocol from our previous studies. Briefly, the iPS cells were plated onto 6-well plates precoated with 2.5% Matrigel and allowed to reach 90% confluence in feeder-free medium. For the first 10 days, the cells were treated with SB431542 (10 μM; Tocris Bioscience) and Noggin (100 ng/ml) in Neural Media (NM) containing Neurobasal and DMEM (1:1), B-27 supplement minus vitamin A (50×, Invitrogen), N2 supplement (100×, Invitrogen), GlutaMax (Invitrogen, 100×), FGF2 ([…]) and EGF ([…]), and 100 units/ml penicillin and 100 μg/ml streptomycin). For the next 10 days, the cells were treated with human recombinant Sonic hedgehog (SHH, 200 ng/ml), DKK1 (100 ng/ml) and BDNF (20 ng/ml), and 10 μM Y27632 (Sigma) in neuronal differentiation medium containing Neurobasal and DMEM (1:3), B27, N2, GlutaMax, and PS. Cells were then switched to treatment with BDNF (20 ng/ml), ascorbic acid (200 μM, Sigma-Aldrich), cAMP (0.5 mM, Sigma-Aldrich), and Y27632 (10 μM) in neuronal differentiation medium. All growth factors were purchased from PeproTech (Rocky Hill, NJ, USA). […]
Cells were treated as described, and cell death was determined by using Cytotoxicity Detection Kit (LDH) according to protocols recommended by the manufacturer (Roche).
A general note: LDH leaks from cells whose membrane has failed.

In the next data set the target is Drp1 (Homo sapiens, UniProt O00429). The data set is described as follows: Drp1 GTP hydrolysis in vitro. Type of data set: biochemical. From the text:
Drp1 GTP hydrolysis was monitored as a function of time as described previously.

For data set [2] the following is noted: 1 mg/kg/day, administered subcutaneously.
Another data set deals with wildtype mice. The data set can be described thus: Tolerability of DA1 treatment in wildtype mice. Type of data set: in vivo, mouse. As to the method: Systemic peptide treatment in HD mice. All randomization and peptide treatments were prepared by an experimenter not associated with behavioral and neuropathology analysis. […] […] The pump was replaced once every month.
The body weight and survival rate of HD mice and wild-type littermates were recorded throughout the study period.

Another data set concerns HdhQ111 cells. The data set can be described thus: Mitochondrial morphology (anti-Tom20 staining) in striatal cells. The format is cell-based, mouse. The following applies: 1 μM/day for 4 days, relative to TAT. As to the method:
Mouse striatal cell lines HdhQ7 and Q111 cells are immortalized from knock-in mice carrying 7 and 111 CAG repeats, respectively, in the mouse htt gene. HdhQ7 and HdhQ111 purchased from CHDI Foundation were cultured in DMEM supplemented with 10% (v/v) heat-inactivated FBS, 1% (v/v) penicillin/streptomycin, and 400 μg/ml G418 at 33° C. with 5% CO2. Cells within 14 passages were used in all experiments.
Cells grown on coverslips were fixed with 4% paraformaldehyde for 20 mins at r.t., permeabilized with 0.1% Triton X-100 in PBS and blocked with 2% normal goat serum. The cells were then incubated with primary antibody (overnight, at 4° C.) followed by Alexa Fluor 568 or 488 secondary antibody (2 h, r.t.). After staining with Nuclei with Hoechst dye (1:10,000 dilution), the cells were mounted onto slides. The cells were imaged by Fluoview FV1000 microscopy (Olympus).

The subject of another data set is TFAM and mtDNA LSP. The data set is described as follows: TFAM-mtDNA binding assay (biotin-streptavidin pull down). The format is cell-based, mouse. The following applies: HdhQ111 cells, relative to TAT. As to the method: Total lysates were isolated from cells with the indicated treatments, and then incubated with biotinylated LSP DNA probe (Biotin-LSP) or LSP (control) overnight at 4° C. Then streptavidin agarose beads (Thermo Fisher Scientific) were added for 1 h at 4° C. After incubation, the biotinstreptavidin complex was washed 3-5 times (1 ml/time) at 4° C. and subject to western blot analysis. To validate the LSP binding specificity to TFAM, 10 times (molar ratio) of non-labeled LSP was pre-incubated with an equal amount of lysate for 2 h prior to addition of the biotin-LSP probe.

Setting [3] is: 1 mg/kg/day for 30 days, Alzet mini pumps, vs saline.

Sequence of Drp1 (O00429 whole entry): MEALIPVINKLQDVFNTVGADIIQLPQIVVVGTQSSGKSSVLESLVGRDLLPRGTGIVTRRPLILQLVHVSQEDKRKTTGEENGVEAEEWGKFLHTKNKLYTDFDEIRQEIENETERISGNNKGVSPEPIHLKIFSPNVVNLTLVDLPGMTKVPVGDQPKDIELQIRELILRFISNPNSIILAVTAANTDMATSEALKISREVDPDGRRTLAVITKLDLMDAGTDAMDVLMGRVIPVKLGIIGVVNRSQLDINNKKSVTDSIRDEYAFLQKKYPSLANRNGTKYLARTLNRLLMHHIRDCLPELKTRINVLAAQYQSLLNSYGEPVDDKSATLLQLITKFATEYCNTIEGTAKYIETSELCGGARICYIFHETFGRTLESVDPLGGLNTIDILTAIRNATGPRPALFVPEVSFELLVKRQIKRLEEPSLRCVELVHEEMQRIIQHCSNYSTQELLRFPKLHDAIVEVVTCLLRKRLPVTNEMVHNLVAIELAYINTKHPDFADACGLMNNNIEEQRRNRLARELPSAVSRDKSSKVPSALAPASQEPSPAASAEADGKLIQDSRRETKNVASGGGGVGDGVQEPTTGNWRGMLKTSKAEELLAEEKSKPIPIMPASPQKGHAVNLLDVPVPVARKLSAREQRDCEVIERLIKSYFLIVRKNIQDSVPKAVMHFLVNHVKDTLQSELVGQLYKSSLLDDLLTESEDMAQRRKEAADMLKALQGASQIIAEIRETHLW

With “YGRKKRRQRRRGGEDKRKT-NH2 [DA1, YGRKKRRQRRR-GG-EDKRKT-NH2]”, the neuronal survival result in data set [1] (cells derived from iPS cells of normal subject) is given as “no observed effects”. Further, the “cell death (LDH release)” value in data set [1] (neurons derived from HD patients, BDNF withdrawal for 24 h) is “decreased”. Also, the “Drp1 oligomerization-induced GTPase activity” value at Drp1 is recorded as “no effects”. Further, the brain entry result in data set [2] was “entered the brain”. The lifespan entry in the data set on wildtype mice is listed as “no effect”. In the data set with wildtype mice (setting [3]), the “relative weight (spleen/body weight)” value is listed as “no effects” and the spleen morphology result is reported as “no effects”. Further, in the data set with wildtype mice (1 mg/kg/day subcutaneously), the “visible side effects in organs” value was “did not cause” and the weight loss result is reported as “did not cause”. The behavioral status entry in the data set on wildtype mice (sustained treatment) is reported as “minor effects”. Besides, the “number of cells with fragmented mitochondria” value with HdhQ111 cells was “reduced”. Besides, the “binding of TFAM and mtDNA” value in the data set with TFAM and mtDNA LSP is on record as “restored”.
